{"source": "paper PMC5587642", "about": "“A Novel Benzocoumarin-Stilbene Hybrid as a DNA ligase I inhibitor with in vitro and in vivo anti-tumor activity in breast cancer models” (Scientific Reports, 2017)", "key": {"[1]": {"system": "DNA ligase activity in 4T1 cell lysate", "assay": "Ex-vivo ligation assay with lysate of treated cells", "type": "cell-based, mouse", "conditions": "4T1, treated 48 h", "experimental": "(§1) The MDA-MB-231 and 4T1 cells were treated with different concentrations of compound 19 for 48h. Cell lysate were prepared as described previously ^6 for the ligation assay. Here we used same DNA substrate which was used in FEN1 flap cleavage assay so that we can check the activity of hLigI and FEN1 proteins in compound 19 treated samples. The reactions were performed as described previously ^6. In the Supplementary Fig. 74 cleaved product remain (25 mer) same. This cleaved product occurs after the cleavage of 25+6 mer oligo by FEN1 protein, since the cleaved product (25 mer) remains same in treated as well as in control samples we can conclude that the compound 19 unable to inhibit the FEN1 protein inside the cells. The cleaved product (25 mer) make a double strand nicked substrate for hLig I protein with 27 mer and 52 mer oligo used in the reaction. hLigI protein gives rise to ligated (52 mer oligo) product after the completion of reaction. In the treated samples, ligated product (52 mer) decreases as compared to untreated samples."}, "MDA-MB-231 cells [2]": {"system": "MDA-MB-231 cells", "assay": "Comet assay", "type": "cell-based, human", "conditions": "12 µM, 48 h", "experimental": "Comet assay was performed as described by Olive et al ^3 with slight modifications. MDA-MB-231 cells treated with compound 19 at 12µM for 48h. The harvested cells were mixed with low melting point agarose and pipet the 200μl of cell suspension onto agarose coated surface of frosted slides. The samples were lysed for overnight at 4 °C after the lysis, electrophoresis performed at 40mA for 30mins. The slides neutralized by water, stained with propidium iodide and images were captured by fluorescence microscope. As shown in Supplementary Fig. 71 the treated samples (B) have increased length of DNA tail as compared to control sample (A). This increase in the tail length of DNA occurs due to DNA damage which is induced by compound 19 in MDA-MB-231 cells."}, "[3]": {"biological_target": "T1, DNA ligation (hLigI) in MDA-MB-231 cell lysate (Homo sapiens, UniProt P18858)", "T1 construct": "endogenous in cells; host or cells: MDA-MB-231", "T1 sequence (P18858 whole entry)": "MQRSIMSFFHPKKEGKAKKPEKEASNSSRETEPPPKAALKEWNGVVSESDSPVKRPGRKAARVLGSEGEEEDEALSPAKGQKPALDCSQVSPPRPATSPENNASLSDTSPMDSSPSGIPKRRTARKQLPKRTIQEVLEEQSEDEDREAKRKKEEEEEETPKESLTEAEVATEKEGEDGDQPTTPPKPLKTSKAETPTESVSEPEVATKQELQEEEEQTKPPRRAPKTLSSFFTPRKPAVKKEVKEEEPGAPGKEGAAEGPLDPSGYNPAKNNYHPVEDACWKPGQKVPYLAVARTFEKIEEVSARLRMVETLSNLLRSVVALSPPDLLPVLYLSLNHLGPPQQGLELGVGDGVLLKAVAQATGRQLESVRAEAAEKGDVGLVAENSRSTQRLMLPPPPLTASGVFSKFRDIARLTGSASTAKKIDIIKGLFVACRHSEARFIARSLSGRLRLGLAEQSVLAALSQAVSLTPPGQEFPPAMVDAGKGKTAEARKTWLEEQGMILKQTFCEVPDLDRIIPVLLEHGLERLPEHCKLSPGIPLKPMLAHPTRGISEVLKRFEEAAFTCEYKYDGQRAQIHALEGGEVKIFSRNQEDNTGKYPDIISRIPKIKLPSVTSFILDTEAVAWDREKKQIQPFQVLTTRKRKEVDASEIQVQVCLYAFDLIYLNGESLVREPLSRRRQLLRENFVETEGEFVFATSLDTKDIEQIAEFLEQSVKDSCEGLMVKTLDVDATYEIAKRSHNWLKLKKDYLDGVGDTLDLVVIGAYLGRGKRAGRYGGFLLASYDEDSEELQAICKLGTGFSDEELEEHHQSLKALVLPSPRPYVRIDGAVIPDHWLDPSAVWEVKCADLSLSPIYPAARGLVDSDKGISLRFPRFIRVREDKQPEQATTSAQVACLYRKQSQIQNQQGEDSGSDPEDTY", "assay": "Ex-vivo ligation assay with lysate of treated cells", "type": "cell-based", "conditions": "MDA-MB-231, treated 48 h", "experimental": "(§2) Cells (MDA-MB-231) were seeded in 6 well plates and treated either with vehicle control (DMSO) or with different concentrations (6 and 12 µM) of compound 19 for 48 h. After the treatment cell lysate was prepared and western blotting was performed as described previously. Briefly, the cells were lysed by very brief sonication. Sonicated samples were centrifuged and the supernatant was collected and used for ligation assay and western blotting.\nas §1, with “In the treated samples, ligated product (52 mer) decreases as compared to untreated samples.” left out"}, "[4]": {"assay": "Metabolic stability in rat liver microsomes", "type": "in vitro ADME", "experimental": "Major drug clearance in the body occurs due to its metabolism in the liver. Metabolic stability in rat liver microsomes (RLM) was conducted in triplicate. Compound 19 (5 µM) was incubated in reaction milieu which contains RLM (0.5 mg/ml), MgCl2 (10 mM), NADPH (10 mM) in a 1.5 ml phosphate buffer solution (pH 7.4). Reaction was started by the addition of NADPH and kept in a shaking water bath at 37 °C. Organic content in reaction mixture was kept less than 1%. Time points at which samples were withdrawn were 0, 5, 15, 30, 45, 60 min. Testosterone was used as control to know the RLM enzyme activity. Control reaction without NADPH was performed to explore any chemical instability or non-cofactor dependent enzymatic degradation. At each time point 150 µL aliquots were withdrawn and added in 150 µL ACN, […] at 10,000 g for 5 minutes, 100 µL samples was pipetted out & analyzed in HPLC-PDA."}, "hLigIV/XRCC4": {"biological_target": "T2, hLigIV/XRCC4 (Homo sapiens, UniProt P49917)", "T2 construct": "made in house; host or cells: E. coli Rosetta2 (DE3) pLacI", "T2 sequence (P49917 whole entry)": "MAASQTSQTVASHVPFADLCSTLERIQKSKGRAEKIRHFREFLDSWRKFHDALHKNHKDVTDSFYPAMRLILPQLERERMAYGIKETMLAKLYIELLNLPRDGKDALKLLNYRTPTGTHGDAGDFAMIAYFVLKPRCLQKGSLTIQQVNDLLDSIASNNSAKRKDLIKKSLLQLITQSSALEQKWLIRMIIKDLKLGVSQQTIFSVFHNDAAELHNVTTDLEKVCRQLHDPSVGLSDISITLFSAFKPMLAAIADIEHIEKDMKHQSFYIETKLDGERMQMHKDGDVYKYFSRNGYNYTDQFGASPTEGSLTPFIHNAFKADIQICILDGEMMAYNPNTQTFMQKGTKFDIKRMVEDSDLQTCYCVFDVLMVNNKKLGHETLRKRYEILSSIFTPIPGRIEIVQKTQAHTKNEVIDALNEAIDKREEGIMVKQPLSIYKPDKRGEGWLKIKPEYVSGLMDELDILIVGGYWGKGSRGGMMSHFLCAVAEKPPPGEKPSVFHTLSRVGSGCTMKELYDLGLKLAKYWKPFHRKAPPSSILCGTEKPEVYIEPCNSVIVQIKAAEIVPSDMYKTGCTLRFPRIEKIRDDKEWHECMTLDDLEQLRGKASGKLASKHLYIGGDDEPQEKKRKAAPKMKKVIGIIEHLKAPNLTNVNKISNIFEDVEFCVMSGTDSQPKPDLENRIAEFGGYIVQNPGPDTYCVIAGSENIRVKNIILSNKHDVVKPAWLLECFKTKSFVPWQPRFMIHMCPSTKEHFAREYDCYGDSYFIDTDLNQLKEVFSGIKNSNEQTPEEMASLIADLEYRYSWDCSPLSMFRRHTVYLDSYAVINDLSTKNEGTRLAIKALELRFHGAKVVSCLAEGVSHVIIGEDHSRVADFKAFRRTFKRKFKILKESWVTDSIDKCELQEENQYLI", "T2 sequence (Q13426 whole entry partner)": "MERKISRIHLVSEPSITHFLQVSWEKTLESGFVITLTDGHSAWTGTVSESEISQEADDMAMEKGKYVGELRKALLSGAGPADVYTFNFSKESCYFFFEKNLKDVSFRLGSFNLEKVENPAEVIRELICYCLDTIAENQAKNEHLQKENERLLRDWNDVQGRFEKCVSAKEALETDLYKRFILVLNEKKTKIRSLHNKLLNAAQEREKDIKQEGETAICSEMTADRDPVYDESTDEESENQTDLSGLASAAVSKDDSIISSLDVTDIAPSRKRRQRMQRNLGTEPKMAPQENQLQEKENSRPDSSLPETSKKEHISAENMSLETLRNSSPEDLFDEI", "assay": "In-vitro DNA ligation assay", "type": "biochemical", "conditions": "5, 10 and 20 µM", "experimental": "(§3) DNA ligation assay was performed as described previously. […] After the incubation, gel images were captured and analyzed by Image Quant LAS4010 software."}, "hLigIIIβ": {"biological_target": "T3, hLigIIIβ (Homo sapiens, UniProt P49916)", "T3 construct": "made in house; host or cells: E. coli Rosetta2 (DE3) pLacI", "T3 sequence (P49916 43-949 isoform P49916-2 limits assumed)": "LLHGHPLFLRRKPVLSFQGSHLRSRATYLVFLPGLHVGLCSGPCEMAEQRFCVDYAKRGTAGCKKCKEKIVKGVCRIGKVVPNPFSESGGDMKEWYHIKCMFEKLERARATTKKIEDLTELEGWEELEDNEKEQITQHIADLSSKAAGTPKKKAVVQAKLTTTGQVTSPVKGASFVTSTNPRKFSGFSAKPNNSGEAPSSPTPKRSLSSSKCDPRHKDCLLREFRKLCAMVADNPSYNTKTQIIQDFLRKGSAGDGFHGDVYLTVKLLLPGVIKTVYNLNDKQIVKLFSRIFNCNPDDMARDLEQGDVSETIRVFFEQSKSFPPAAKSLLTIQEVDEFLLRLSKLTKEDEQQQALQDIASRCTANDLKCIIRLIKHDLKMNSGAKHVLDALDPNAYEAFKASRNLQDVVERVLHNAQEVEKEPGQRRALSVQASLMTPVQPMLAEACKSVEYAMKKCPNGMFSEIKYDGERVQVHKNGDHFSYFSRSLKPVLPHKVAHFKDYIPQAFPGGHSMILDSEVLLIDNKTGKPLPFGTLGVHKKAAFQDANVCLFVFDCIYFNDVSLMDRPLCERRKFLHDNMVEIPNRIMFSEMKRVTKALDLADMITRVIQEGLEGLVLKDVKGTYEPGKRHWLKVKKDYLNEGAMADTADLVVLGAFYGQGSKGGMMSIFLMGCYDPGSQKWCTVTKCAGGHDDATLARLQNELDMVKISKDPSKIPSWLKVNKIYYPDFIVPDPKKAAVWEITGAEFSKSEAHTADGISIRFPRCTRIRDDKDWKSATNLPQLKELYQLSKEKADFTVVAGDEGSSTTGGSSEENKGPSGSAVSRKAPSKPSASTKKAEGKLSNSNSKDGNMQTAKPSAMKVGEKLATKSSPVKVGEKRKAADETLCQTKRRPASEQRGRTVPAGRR", "assay": "In-vitro DNA ligation assay", "type": "biochemical", "conditions": "5, 10 and 20 µM", "experimental": "as §3"}, "T4 DNA ligase": {"biological_target": "T4 DNA ligase (Enterobacteria phage T4, UniProt P00970)", "sequence (P00970 whole entry)": "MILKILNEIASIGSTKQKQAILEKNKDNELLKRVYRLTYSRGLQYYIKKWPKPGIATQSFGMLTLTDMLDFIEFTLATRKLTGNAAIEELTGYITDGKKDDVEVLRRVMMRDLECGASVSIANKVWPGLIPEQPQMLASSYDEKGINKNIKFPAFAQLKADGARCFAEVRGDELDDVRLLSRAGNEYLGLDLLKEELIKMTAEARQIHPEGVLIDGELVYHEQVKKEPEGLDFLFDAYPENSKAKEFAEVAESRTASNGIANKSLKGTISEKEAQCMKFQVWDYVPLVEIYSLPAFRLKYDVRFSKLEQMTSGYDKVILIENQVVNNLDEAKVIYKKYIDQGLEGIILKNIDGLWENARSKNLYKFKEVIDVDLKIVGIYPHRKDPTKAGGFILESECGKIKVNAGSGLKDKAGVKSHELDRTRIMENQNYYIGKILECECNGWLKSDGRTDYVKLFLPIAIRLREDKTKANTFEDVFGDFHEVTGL", "assay": "In-vitro DNA ligation assay", "type": "biochemical", "conditions": "5, 10 and 20 µM", "experimental": "as §3"}, "hLigI": {"biological_target": "T4, hLigI (Homo sapiens, UniProt P18858)", "T4 construct": "made in house", "assay": "In-vitro DNA ligation assay", "type": "biochemical", "experimental": "as §3"}, "MDA-MB-231 cells [5]": {"system": "MDA-MB-231 cells", "assay": "Clonogenic survival assay", "type": "cell-based, human", "conditions": "0.75, 1.5 and 3 µM; 24 and 48 h treatment", "experimental": "Clonogenic survival assay was performed as described previously[16] with modifications. MDA-MB-231 cells (100 cells) were seeded in 12 well plates for 24 h. Cells were then treated with different concentrations of compound 19 (0.75, 1.5 and 3 µM) for 24 and 48 h. After drug treatment, culture medium was replaced with fresh medium and cells were cultured for another 10 days. After 10 days, the cells were washed with PBS carefully and stained with a solution containing 6% glutaraldehyde and 0.5% crystal violet."}, "[6]": {"biological_target": "T5, flap cleavage activity (FEN1) in MDA-MB-231 cell lysate (Homo sapiens, UniProt P39748)", "T5 construct": "endogenous in cells; host or cells: MDA-MB-231", "T5 sequence (P39748 whole entry)": "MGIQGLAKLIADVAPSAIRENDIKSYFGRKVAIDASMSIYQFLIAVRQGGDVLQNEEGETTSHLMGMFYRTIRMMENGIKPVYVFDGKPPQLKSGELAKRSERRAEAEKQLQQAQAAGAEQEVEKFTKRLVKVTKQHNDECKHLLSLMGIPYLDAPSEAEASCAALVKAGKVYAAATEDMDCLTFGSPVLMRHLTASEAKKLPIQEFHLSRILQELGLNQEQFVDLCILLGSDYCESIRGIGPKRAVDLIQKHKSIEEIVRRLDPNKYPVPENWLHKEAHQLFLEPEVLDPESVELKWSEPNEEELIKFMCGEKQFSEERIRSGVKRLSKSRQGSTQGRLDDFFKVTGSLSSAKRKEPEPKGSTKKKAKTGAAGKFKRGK", "assay": "Ex-vivo flap cleavage with lysate of treated cells", "type": "cell-based", "conditions": "MDA-MB-231, treated 48 h", "experimental": "as §2\nas §1, with “In the treated samples, ligated product (52 mer) decreases as compared to untreated samples.” left out"}, "[7]": {"system": "4T1 (Mouse Breast Cancer)", "assay": "MTT cell viability assay", "type": "cell-based", "experimental": "(§4) Cell viability assay was performed as described previously. Briefly, cells were seeded in 96 well plates and treated with different concentrations of compound 19 for 48 h. After drug treatment, MTT reagent was added in each well of the plate and cell viability was quantified by measuring the absorbance at 590 nm."}, "DLD1 (Colon)": {"system": "DLD1 (Colon)", "assay": "MTT cell viability assay", "type": "cell-based", "experimental": "as §4"}, "PANC-1 (Pancreas)": {"system": "PANC-1 (Pancreas)", "assay": "MTT cell viability assay", "type": "cell-based", "experimental": "as §4"}, "A172 (Brain)": {"system": "A172 (Brain)", "assay": "MTT cell viability assay", "type": "cell-based", "experimental": "as §4"}, "A549 (Lung)": {"system": "A549 (Lung)", "assay": "MTT cell viability assay", "type": "cell-based", "experimental": "as §4"}, "SK-OV-3 (Ovary)": {"system": "SK-OV-3 (Ovary)", "assay": "MTT cell viability assay", "type": "cell-based", "experimental": "as §4"}, "[8]": {"system": "HEK-293 (Non-cancerous cell)", "assay": "MTT cell viability assay", "type": "cell-based", "experimental": "as §4"}, "PLC/PRF/5 (Liver)": {"system": "PLC/PRF/5 (Liver)", "assay": "MTT cell viability assay", "type": "cell-based", "experimental": "as §4"}}, "data": [{"smiles": "COc1cc(/C=C/c2cc(=O)oc3c2ccc2ccccc23)cc(OC)c1", "note": "[Compound 19, (E)-4-(3,5-dimethoxystyryl)-2H-benzo[h]chromen-2-one]", "values": [{"measurement": "DNA ligase activity in cell free extracts of treated cells", "setting": "[1]", "result": "can inhibit DNA ligase activity"}, {"measurement": "DNA tail length (comet assay)", "setting": "MDA-MB-231 cells [2]", "result": "significant increase in the tail length of treated cells"}, {"measurement": "DNA ligation capacity of lysate of treated cells", "setting": "[3]", "result": "reduced capacity for DNA ligation"}, {"measurement": "Microsomal metabolic stability", "setting": "[4]; 5 µM, RLM 0.5 mg/ml, NADPH, up to 60 min", "result": "55.5 ± 4.77", "unit": "%"}, {"measurement": "Stability in control reaction in the absence of cofactor", "setting": "[4]; RLM without NADPH", "result": "stable"}, {"measurement": "Inhibition of hLigIV/XRCC4 ligation activity", "setting": "hLigIV/XRCC4", "result": "unaffected"}, {"measurement": "Inhibition of hLigIIIβ ligation activity", "setting": "hLigIIIβ", "result": "unaffected"}, {"measurement": "Inhibition of T4 DNA ligase activity", "setting": "T4 DNA ligase", "result": "unaffected"}, {"measurement": "Antiligase activity, compound versus parent molecules", "setting": "hLigI; 20 µM", "result": "significantly better antiligase activity"}, {"measurement": "Inhibition of hLigI ligation activity", "setting": "hLigI; 5, 10 and 20 µM", "result": "specifically inhibits the activity of hLigI"}, {"measurement": "Colony forming ability", "setting": "MDA-MB-231 cells [5]", "result": "inhibited colony forming ability of cells"}, {"measurement": "Flap cleavage activity of lysate of treated cells", "setting": "[6]", "result": "remained unaffected"}, {"measurement": "% Inhibition of cell viability at 10 µM, 4T1 (Mouse Breast Cancer)", "setting": "[7]; 10 µM", "result": 53.18, "unit": "%"}, {"measurement": "IC50", "setting": "[7]; Mus musculus, MTT, 48 h", "result": "11.6 ± 1.7", "unit": "µM"}, {"measurement": "% Inhibition of cell viability at 10 µM, DLD1 (Colon)", "setting": "DLD1 (Colon)", "result": 42.64, "unit": "%"}, {"measurement": "% Inhibition of cell viability at 10 µM, PANC-1 (Pancreas)", "setting": "PANC-1 (Pancreas)", "result": 50.32, "unit": "%"}, {"measurement": "% Inhibition of cell viability at 10 µM, A172 (Brain)", "setting": "A172 (Brain)", "result": 43.71, "unit": "%"}, {"measurement": "% Inhibition of cell viability at 10 µM, A549 (Lung)", "setting": "A549 (Lung)", "result": "NA (NA= Not active (% Inhibition <30%))"}, {"measurement": "% Inhibition of cell viability at 10 µM, SK-OV-3 (Ovary)", "setting": "SK-OV-3 (Ovary)", "result": "NA (NA= Not active (% Inhibition <30%))"}, {"measurement": "% Inhibition of cell viability at 10 µM, HEK-293 (Non-cancerous cell)", "setting": "[8]", "result": 37.83, "unit": "%"}, {"measurement": "% Inhibition of cell viability at 10 µM, PLC/PRF/5 (Liver)", "setting": "PLC/PRF/5 (Liver)", "result": "NA (NA= Not active (% Inhibition <30%))"}]}]}
